Data taken from patent publication US10479777B2, “Herbicidal azines” (BASF SE, priority 2013, dated 2019).

What was measured:
Type in all cases: in vivo
Abutilon theophrasti = experiment: greenhouse test, pre-emergence treatment; details: scale from 0 to 100
From the text: (§1) The culture containers used were plastic flowerpots containing loamy sand with approximately 3.0% of humus as the substrate. The seeds of the test plants were sown separately for each species.
(§2) For the pre-emergence treatment, the active ingredients, which had been suspended or emulsified in water, were applied directly after sowing by means of finely distributing nozzles. The containers were irrigated gently to promote germination and growth and subsequently covered with transparent plastic hoods until the plants had rooted. This cover caused uniform germination of the test plants, unless this had been impaired by the active ingredients. For the post-emergence treatment, the test plants were first grown to a height of 3 to 15 cm, depending on the plant habit, and only then treated with the active ingredients which had been suspended or emulsified in water. For this purpose, the test plants were either sown directly and grown in the same containers, or they were first grown separately as seedlings and transplanted into the test containers a few days prior to treatment.
(§3) Depending on the species, the plants were kept at 10-25° C. or 20-35° C., respectively. The test period extended over 2 to 4 weeks. During this time, the plants were tended, and their response to the individual treatments was evaluated.
(§4) Evaluation was carried out using a scale from 0 to 100. 100 means no emergence of the plants, or complete destruction of at least the aerial moieties, and 0 means no damage, or normal course of growth. A moderate herbicidal activity is given at values of at least 60, a good herbicidal activity is given at values of at least 70, and a very good herbicidal activity is given at values of at least 85.
(§5) The plants used in the greenhouse experiments were of the following species: […]

Amaranthus retroflexus = experiment: greenhouse test, pre-emergence treatment; details: scale from 0 to 100
From the text: as §1, §2, §3, §4, §5

Setaria faberi = experiment: greenhouse test, pre-emergence treatment; details: scale from 0 to 100
From the text: as §1, §2, §3, §4, §5

Apera spica-venti = experiment: greenhouse test, pre-emergence treatment; details: scale from 0 to 100
From the text: as §1, §2, §3, §4, §5

Echinocloa crus-galli = experiment: greenhouse test, pre-emergence treatment; details: scale from 0 to 100
From the text: as §1, §2, §3, §4, §5

Setaria viridis [1] = experiment: greenhouse test, post-emergence treatment; details: 1104 g/ha, scale from 0 to 100
From the text: as §1, §2, §3, §4, §5

Setaria viridis [2] = experiment: greenhouse test, pre-emergence treatment; details: 125 g/ha, scale from 0 to 100
From the text: as §1, §2, §3, §4, §5

Structure (SMILES): Nc1nc(Nc2nc(F)c(F)c(Cl)c2F)nc(C2(Cl)CCCC2)n1 [Example 11]
- herbicidal activity (Abutilon theophrasti; 500 g/ha): very good (a very good herbicidal activity is given at values of at least 85)
- herbicidal activity (Amaranthus retroflexus; 500 g/ha): very good (a very good herbicidal activity is given at values of at least 85)
- herbicidal activity (Setaria faberi; 500 g/ha): very good (a very good herbicidal activity is given at values of at least 85)

Structure (SMILES): Nc1nc(Nc2c(F)c(F)nc(F)c2F)nc(C2(F)CCC2)n1 [Example 70]
- herbicidal activity (Amaranthus retroflexus; 1000 g/ha): very good (a very good herbicidal activity is given at values of at least 85)
- herbicidal activity (Apera spica-venti; 1000 g/ha): good (a good herbicidal activity is given at values of at least 70)

Structure (SMILES): CC(C)C(F)c1nc(N)nc(Nc2nc(F)c(F)c(Cl)c2F)n1 (centres unmarked) [Example 32]
- herbicidal activity (Echinocloa crus-galli; 125 g/ha): very good (a very good herbicidal activity is given at values of at least 85)
- herbicidal activity (Amaranthus retroflexus; 125 g/ha): very good (a very good herbicidal activity is given at values of at least 85)
- herbicidal activity (Setaria faberi; 125 g/ha): very good (a very good herbicidal activity is given at values of at least 85)

Structure (SMILES): COC(C)c1nc(N)nc(Nc2c(F)c(F)nc(F)c2F)n1 (centres unmarked) [Example 61]
- herbicidal activity (Abutilon theophrasti; 500 g/ha): very good (a very good herbicidal activity is given at values of at least 85)
- herbicidal activity (Amaranthus retroflexus; 500 g/ha): very good (a very good herbicidal activity is given at values of at least 85)

Structure (SMILES): CCC(F)(CC)c1nc(N)nc(Nc2nc(F)c(F)c(Cl)c2F)n1 [Example 30]
- herbicidal activity (Echinocloa crus-galli; 250 g/ha): very good (a very good herbicidal activity is given at values of at least 85)
- herbicidal activity (Amaranthus retroflexus; 250 g/ha): very good (a very good herbicidal activity is given at values of at least 85)
- herbicidal activity (Setaria faberi; 250 g/ha): very good (a very good herbicidal activity is given at values of at least 85)

Structure (SMILES): CC(C)(C)c1nc(N)nc(Nc2c(F)c(F)nc(F)c2F)n1 [Example 62]
- herbicidal activity (Abutilon theophrasti; 250 g/ha): very good (a very good herbicidal activity is given at values of at least 85)
- herbicidal activity (Amaranthus retroflexus; 250 g/ha): very good (a very good herbicidal activity is given at values of at least 85)
- herbicidal activity (Setaria faberi; 250 g/ha): very good (a very good herbicidal activity is given at values of at least 85)

Structure (SMILES): CCC(F)c1nc(N)nc(Nc2c(F)c(F)nc(F)c2F)n1 (centres unmarked) [Example 63]
- herbicidal activity (Abutilon theophrasti; 125 g/ha): very good (a very good herbicidal activity is given at values of at least 85)
- herbicidal activity (Amaranthus retroflexus; 125 g/ha): very good (a very good herbicidal activity is given at values of at least 85)
- herbicidal activity (Setaria faberi; 125 g/ha): very good (a very good herbicidal activity is given at values of at least 85)

Structure (SMILES): CCC(C)(F)c1nc(N)nc(Nc2c(F)c(F)nc(F)c2F)n1 (centres unmarked) [Example 52]
- herbicidal activity (Echinocloa crus-galli; 250 g/ha): very good (a very good herbicidal activity is given at values of at least 85)
- herbicidal activity (Abutilon theophrasti; 250 g/ha): very good (a very good herbicidal activity is given at values of at least 85)
- herbicidal activity (Amaranthus retroflexus; 250 g/ha): very good (a very good herbicidal activity is given at values of at least 85)

Structure (SMILES): COC(C)(C)c1nc(N)nc(Nc2nc(F)c(F)c(Cl)c2F)n1 [Example 22]
- herbicidal activity (Amaranthus retroflexus; 250 g/ha): very good (a very good herbicidal activity is given at values of at least 85)

Structure (SMILES): Nc1nc(Nc2c(F)c(F)nc(F)c2F)nc(C(F)(F)F)n1 [Example 50]
- herbicidal activity (Amaranthus retroflexus; 500 g/ha): very good (a very good herbicidal activity is given at values of at least 85)
- herbicidal activity (Apera spica-venti; 500 g/ha): good (a good herbicidal activity is given at values of at least 70)

Structure (SMILES): CCC(C)(F)c1nc(N)nc(Nc2nc(F)c(F)c(Cl)c2F)n1 (centres unmarked) [Example 13]
- herbicidal activity (Echinocloa crus-galli; 62.5 g/ha): very good (a very good herbicidal activity is given at values of at least 85)
- herbicidal activity (Amaranthus retroflexus; 62.5 g/ha): very good (a very good herbicidal activity is given at values of at least 85)
- herbicidal activity (Setaria faberi; 62.5 g/ha): very good (a very good herbicidal activity is given at values of at least 85)

Structure (SMILES): CCC(C)(F)c1nc(N)nc(Nc2nc(F)c(F)cc2F)n1 (racemic) [Example 14]
- herbicidal activity (Abutilon theophrasti; 62.5 g/ha): very good (a very good herbicidal activity is given at values of at least 85)
- herbicidal activity (Amaranthus retroflexus; 62.5 g/ha): very good (a very good herbicidal activity is given at values of at least 85)
- herbicidal activity (Setaria faberi; 62.5 g/ha): very good (a very good herbicidal activity is given at values of at least 85)

Structure (SMILES): Cc1c(F)c(F)nc(Nc2nc(N)nc(C(C)(C)F)n2)c1F [Example 29]
- herbicidal activity (Abutilon theophrasti; 125 g/ha): very good (a very good herbicidal activity is given at values of at least 85)
- herbicidal activity (Amaranthus retroflexus; 125 g/ha): very good (a very good herbicidal activity is given at values of at least 85)
- herbicidal activity (Setaria faberi; 125 g/ha): very good (a very good herbicidal activity is given at values of at least 85)

Structure (SMILES): CC(C)(F)c1nc(N)nc(Nc2c(F)cncc2F)n1 [Example 54]
- herbicidal activity (Amaranthus retroflexus; 62 g/ha): very good (a very good herbicidal activity is given at values of at least 85)
- herbicidal activity (Apera spica-venti; 62 g/ha): very good (a very good herbicidal activity is given at values of at least 85)

Structure (SMILES): Nc1nc(Nc2c(F)c(F)nc(F)c2F)nc(C2(Cl)CCCC2)n1 [Example 58]
- herbicidal activity (Echinocloa crus-galli; 250 g/ha): very good (a very good herbicidal activity is given at values of at least 85)
- herbicidal activity (Amaranthus retroflexus; 250 g/ha): very good (a very good herbicidal activity is given at values of at least 85)
- herbicidal activity (Setaria faberi; 250 g/ha): very good (a very good herbicidal activity is given at values of at least 85)

Structure (SMILES): COc1c(F)c(F)nc(Nc2nc(N)nc(C(C)(C)F)n2)c1F [Example 31]
- herbicidal activity (Abutilon theophrasti; 250 g/ha): very good (a very good herbicidal activity is given at values of at least 85)
- herbicidal activity (Amaranthus retroflexus; 250 g/ha): very good (a very good herbicidal activity is given at values of at least 85)
- herbicidal activity (Setaria faberi; 250 g/ha): very good (a very good herbicidal activity is given at values of at least 85)

Structure (SMILES): CC(C)(C#N)c1nc(N)nc(Nc2c(F)c(F)nc(F)c2F)n1 [Example 57]
- herbicidal activity (Abutilon theophrasti; 250 g/ha): very good (a very good herbicidal activity is given at values of at least 85)
- herbicidal activity (Amaranthus retroflexus; 250 g/ha): very good (a very good herbicidal activity is given at values of at least 85)

Structure (SMILES): CC1(c2nc(N)nc(Nc3c(F)c(F)nc(F)c3F)n2)CCCCC1 [Example 68]
- herbicidal activity (Amaranthus retroflexus; 250 g/ha): very good (a very good herbicidal activity is given at values of at least 85)

Structure (SMILES): CC(C)(F)c1nc(N)nc(Nc2c(F)ccnc2F)n1 [Example 48]
- herbicidal activity (Amaranthus retroflexus; 125 g/ha): very good (a very good herbicidal activity is given at values of at least 85)

Structure (SMILES): CCC(F)(CC)c1nc(N)nc(Nc2c(F)c(F)nc(F)c2F)n1 [Example 71]
- herbicidal activity (Abutilon theophrasti; 250 g/ha): very good (a very good herbicidal activity is given at values of at least 85)
- herbicidal activity (Amaranthus retroflexus; 250 g/ha): very good (a very good herbicidal activity is given at values of at least 85)
- herbicidal activity (Setaria faberi; 250 g/ha): very good (a very good herbicidal activity is given at values of at least 85)

Structure (SMILES): CCC(C)c1nc(N)nc(Nc2c(F)c(F)nc(F)c2F)n1 (centres unmarked) [Example 69]
- herbicidal activity (Abutilon theophrasti; 125 g/ha): very good (a very good herbicidal activity is given at values of at least 85)
- herbicidal activity (Amaranthus retroflexus; 125 g/ha): very good (a very good herbicidal activity is given at values of at least 85)

Structure (SMILES): Nc1nc(Nc2nc(F)c(F)c(Cl)c2F)nc(C2CCCC2)n1 [Example 17]
- herbicidal activity (Amaranthus retroflexus; 250 g/ha): good (a good herbicidal activity is given at values of at least 70)

Structure (SMILES): CC1CCC(c2nc(N)nc(Nc3c(F)c(F)nc(F)c3F)n2)CC1 (centres unmarked) [Example 64]
- herbicidal activity (Abutilon theophrasti; 250 g/ha): very good (a very good herbicidal activity is given at values of at least 85)
- herbicidal activity (Amaranthus retroflexus; 250 g/ha): very good (a very good herbicidal activity is given at values of at least 85)
- herbicidal activity (Setaria faberi; 250 g/ha): very good (a very good herbicidal activity is given at values of at least 85)

Structure (SMILES): Nc1nc(Nc2nc(F)c(F)c(Cl)c2F)nc(C2(F)CCCC2)n1 [Example 12]
- herbicidal activity (Echinocloa crus-galli; 125 g/ha): very good (a very good herbicidal activity is given at values of at least 85)
- herbicidal activity (Amaranthus retroflexus; 125 g/ha): very good (a very good herbicidal activity is given at values of at least 85)
- herbicidal activity (Setaria faberi; 125 g/ha): very good (a very good herbicidal activity is given at values of at least 85)

Structure (SMILES): CC(C)(F)c1nc(N)nc(Nc2nc(F)c(F)c(OS(C)(=O)=O)c2F)n1 [Example 37]
- herbicidal activity (Amaranthus retroflexus; 250 g/ha): very good (a very good herbicidal activity is given at values of at least 85)
- herbicidal activity (Apera spica-venti; 250 g/ha): good (a good herbicidal activity is given at values of at least 70)

Structure (SMILES): CC(C)Oc1cccnc1Nc1nc(N)nc(C(F)(F)F)n1 [Example 36]
- herbicidal activity (Setaria viridis [1]): very good (a very good herbicidal activity is given at values of at least 85)

Structure (SMILES): CC(C)(F)c1nc(N)nc(Nc2nc(F)c(F)c(Cl)c2F)n1 [Example 5]
- herbicidal activity (Echinocloa crus-galli; 125 g/ha): very good (a very good herbicidal activity is given at values of at least 85)
- herbicidal activity (Setaria viridis [2]): very good (a very good herbicidal activity is given at values of at least 85)
- herbicidal activity (Amaranthus retroflexus; 125 g/ha): very good (a very good herbicidal activity is given at values of at least 85)

Structure (SMILES): Nc1nc(Nc2c(F)c(F)nc(F)c2F)nc(C2(F)CCCC2)n1 [Example 66]
- herbicidal activity (Abutilon theophrasti; 250 g/ha): very good (a very good herbicidal activity is given at values of at least 85)
- herbicidal activity (Amaranthus retroflexus; 250 g/ha): very good (a very good herbicidal activity is given at values of at least 85)
- herbicidal activity (Setaria faberi; 250 g/ha): very good (a very good herbicidal activity is given at values of at least 85)

Structure (SMILES): CC1(c2nc(N)nc(Nc3c(F)c(F)nc(F)c3F)n2)CCCC1 [Example 67]
- herbicidal activity (Amaranthus retroflexus; 250 g/ha): very good (a very good herbicidal activity is given at values of at least 85)
